# Test results taken from US20080268535A1, “Method for Inducing the Differentiation of Human Myelogenous Leukemia Cells Into Megakarocytes or Thrombocytes” (EWHA University - Industry Collaboration Foundation, priority 2005, published 2008).
# Tests used:
# Type in all cases: cell-based, human
# HEL cells [1] = assay: Megakaryocyte differentiation, CD41/CD61 expression over time by FACS, HEL cells; settings: 5 μg/ml, 5 days
# Protocol: HEL cells were aliquoted at a density of 3×10^5 cells per well in 6-well plates and treated with 5 μg/ml of (R)-NALPCE, followed by incubation for 5 days. After centrifugation (1,000 rpm, 5 min), the cell pellets thus obtained were washed three times with 0.01% bovine serum albumin (BSA) in PBS. The cells were incubated with 10 μl of anti-CD41-fluorescein-5-isothiocyanate (FITC) (Dako Chemicals, Carpenteria, Calif.) or 20 μl of anti-CD61-phycoerythrin (PE) (BD Pharmingen) in 200 μl 0.01% bovine serum albumin (BSA)-PBS at 4° C. for 50 min with spinning to realize homogeneous fluorescent staining. After centrifugation (1,000 rpm, 10 min), the cell pellets thus obtained were rinsed three times with 0.01% bovine serum albumin (BSA)-PBS. Fluorescence was analyzed on a fluorescence-activated cell sorter (FACS) (Aria) using a Cellquest program.
# HEL cells [2] = assay: Differentiation inductivity, lineage receptor expression by FACS, HEL cells; settings: 5 μg/ml (R)-NALPCE 5 days or 10 nM PMA 3 days
# Protocol: HEL cells were aliquoted at a density of 3×10^5 cells per well in 6-well plates and treated separately with 5 μg/ml of (R)-NALPCE and 10 nM of 12-phorbol myristate-13-acetate (PMA) (Calbiochem.), followed by incubation for 5 and 3 days, respectively. After centrifugation (1,000 rpm, 10 min), cell pellets thus obtained were washed three times with 0.01% bovine serum albumin (BSA) in PBS and incubated with 10 μl of anti-CD61-fluorescein-5-isothiocyanate (FITC) (Dako Chemicals, Carpenteria, Calif.), 20 μl of anti-CD16-Cy-Chrome (Cy) (BD Pharmingen), 10 μl of anti-glycophorin ACD235a-phycoerythrin (PE) (Dako Chemicals, Carpenteria, Calif.), and 20 μl of anti-CD14-allophycocyanin (APC) (BD Pharmingen) in 200 μl of 0.01% bovine serum albumin (BSA)-PBS at 4° C. for 50 min with spinning so as to achieve homogenous fluorescent staining over the cells. After centrifugation (1,000 rpm, 10 min), the cell pellets thus obtained were washed three times with 0.01% bovine serum albumin (BSA) in PBS. Fluorescence was analyzed on a fluorescence-activated cell sorter (FACS) (Aria) using a Cellquest program.
# HEL cells [3] = assay: Cell differentiation of HEL cells, optical microscopy; settings: 5 μg/ml (R)-NALPCE, 10 nmole PMA or 50 ng/ml TPO, 5 days
# Protocol: HEL cells were aliquoted at a density of 3×10^5 cells per well in 6-well plates and treated with 5 μg/ml of (R)-NALPCE, 10 nmole of PMA, or 50 ng/ml of TPO, followed by incubation in a day-dependent manner for 5 days. They were observed under an optical microscope with 200× magnification.
# K562 cells = assay: Production of thrombocytes, K562 cells on OP9 cells, optical microscopy; settings: 40 μg/ml
# Protocol: An experiment was conducted in a manner similar to that of Example 7. OP9 cells were aliquoted at a density of 1×10^5 cells per well in 6-well plates and incubated for 24 hrs. After OP9 cells were uniformly attached onto the bottom of the plates, K562 cells were layered at a density of 1×10^5 cells per well over the OP cells in the 6-well plates. Treatment with 40 μg/ml of (R)-NALPCE was conducted before incubation in a day-dependent manner for 5 days. They were observed under an optical microscope with 200× magnification.
smiles,measurement,setting,value
"CCCCCCCCCCCCCCCCCC(=O)NC(COP(=O)([O-])OCC[N+](C)(C)C)C(=O)OC [(R)-NALPCE, N-steroyl-O-phosphocholine-D-serine methyl ester]",CD41 and CD61 expression rate,HEL cells [1],increase in expression rate in a day-dependent manner
same,"expression of CD61, CD235a, CD16 and CD14 receptors",HEL cells [2],CD61 and CD16 were specifically expressed
same,cell morphology (optical microscope),HEL cells [3],increase in size in a day-dependent manner
same,cell size (optical microscope),K562 cells; 5 days,increased in size in a time-dependent manner
same,appearance of anucleate cells,K562 cells; from Day 4 after the treatment,"anucleate cells, such as thrombocytes, were observed"
